Experimental data taken from patent US20230355622A1, “METHODS OF CHEMOVACCINATION AGAINST PLASMODIUM INFECTIONS” (Merck Sharp & Dohme LLC, priority 2020, published 2023).
pEC50: −log10 of the molar value.

test system: parasite; assay: Parasite LDH growth assay (Parasite Assay), antiparasite potency; type: cell-based; conditions: 72 h, parasite LDH growth assay, ring stage parasites, 72 hours incubation at 37° C.; read-out: EC50
Protocol: Assessing Antiparasite Potency in a Parasite LDH Growth Assay (Parasite Assay)
The parasite stock was maintained at 4% haematocrit in RPMI-Hepes media buffered with sodium bicarbonate and supplemented with 5% heat inactivated human serum and 0.5% albumax.
On the day of assay set up, a blood smear of the parasite culture was Giemsa stained and counted. The parasitemia was adjusted to 0.7% rings and the haematocrit was diluted to 2% in RPMI-Hepes media buffered with sodium bicarbonate and supplemented with 5% heat inactivated human serum and 0.5% albumax. 30 ul of diluted parasites are then added into 10 ul of media+compound in pre-prepared Greiner TC assay plates. Parasite assay plates were placed in gassed humidified boxes in single layer and allowed to incubate at 37° C. for 72 hours. After 72 hours growth, assay plates are sealed with parafilm and frozen flat, in single file at −80° C. overnight. On the following day, assay plates are allowed to thaw at room temperature for 4 hours to which an LDH assay is performed to measure parasite growth.

Row | SMILES | pEC50
1 | CCC1(CC)CC(=O)N(C2CCCc3ccc(C(=O)N[C@@H]4c5ccccc5OC[C@@]4(C)O)cc32)C(=N)N1 (stereo partly drawn) [Example 161, 8-(4,4-diethyl-2-imino-6-oxotetrahydropyrimidin-1(2H)-yl)-N-((3S,4R)-3-hydroxy-3-methylchroman-4-yl)-5,6,7,8-tetrahydronaphthalene-2-carboxamide] | 9.10
2 | CC[C@]1(C)CC(=O)N([C@H]2c3cc(C(=O)N[C@@H]4c5ccccc5OC(C)(C)[C@H]4O)ccc3C[C@H]2C)C(=N)N1 [Example 168, (2R,3R)-3-[(4R)-4-ethyl-2-imino-4-methyl-6-oxo-hexahydropyrimidin-1-yl]-N-[(3S,4R)-3-hydroxy-2,2-dimethyl-chroman-4-yl]-2-methyl-indane-5-carboxamide] | 9.40
3 | CC[C@]1(C)CC(=O)N([C@H]2c3cc(C(=O)N[C@@H]4c5ccccc5OC(C)(C)[C@H]4O)ccc3C[C@@H]2C)C(=N)N1 [Example 169, (2S,3R)-3-[(4R)-4-ethyl-2-imino-4-methyl-6-oxo-hexahydropyrimidin-1-yl]-N-[(3S,4R)-3-hydroxy-2,2-dimethyl-chroman-4-yl]-2-methyl-indane-5-carboxamide] | 9.52
4 | CC[C@]1(C)CC(=O)N([C@@H]2C[C@@H](C)c3ccc(C(=O)N[C@@H]4c5ccccc5OC(C)(C)[C@H]4O)cc32)C(=N)N1 [Example 171, (1R,3R)-3-[(4R)-4-ethyl-2-imino-4-methyl-6-oxo-hexahydropyrimidin-1-yl]-N-[(3S,4R)-3-hydroxy-2,2-dimethyl-chroman-4-yl]-1-methyl-indane-5-carboxamide] | 9.15
5 | CC1(C)CC(=O)N([C@@H]2CCOc3ccc(C(=O)N[C@@H]4c5ccccc5OC(C)(C)[C@@]4(C)O)cc32)C(=N)N1 [Example 172, (4R)-N-[(3S,4R)-3-hydroxy-2,2,3-trimethyl-chroman-4-yl]-4-(2-imino-4,4-dimethyl-6-oxo-hexahydropyrimidin-1-yl)chromane-6-carboxamide] | 9.05
6 | CC1(C)CC(=O)N([C@H]2c3cc(C(=O)N[C@@H]4c5ccccc5OC(C)(C)[C@H]4O)ccc3OC2(C)C)C(=N)N1 [Example 182, (3S)-N-[(3S,4R)-3-hydroxy-2,2-dimethyl-chroman-4-yl]-3-(2-imino-4,4-dimethyl-6-oxo-hexahydropyrimidin-1-yl)-2,2-dimethyl-3H-benzofuran-5-carboxamide] | 8.21
7 | COC1COc2ccc(C(=O)N[C@@H]3c4ccccc4OC[C@@]3(C)O)cc2C1N1C(=N)NC(C)(C)CC1=O (stereo partly drawn) [Example 186, N-[(3S,4R)-3-hydroxy-3-methyl-chroman-4-yl]-4-(2-imino-4,4-dimethyl-6-oxo-hexahydropyrimidin-1-yl)-3-methoxy-chromane-6-carboxamide] | 7.15
8 | CC1(C)CC(=O)N([C@@H]2CCOc3ccc(C(=O)N[C@@H]4c5cc(F)ccc5OC(C)(C)[C@H]4O)cc32)C(=N)N1 [Example 189, (4R)-N-[(3S,4R)-6-fluoro-3-hydroxy-2,2-dimethyl-chroman-4-yl]-4-(2-imino-4,4-dimethyl-6-oxo-hexahydropyrimidin-1-yl)chromane-6-carboxamide] | 9.00
9 | CCC1(CC)CC(=O)N([C@@H]2CCOc3ccc(C(=O)NC(c4ccccc4)c4ccccc4)cc32)C(=N)N1 [Example 194, (4R)-N-benzhydryl-4-(4,4-diethyl-2-imino-6-oxo-hexahydropyrimidin-1-yl)chromane-6-carboxamide] | 9.05
10 | CC1(C)CC(=O)N([C@@H]2CC(F)(F)c3ccc(C(=O)N[C@@H]4c5ccccc5OC(C)(C)[C@H]4O)cc32)C(=N)N1 [Example 199, (3R)-1,1-difluoro-N-[(3S,4R)-3-hydroxy-2,2-dimethyl-chroman-4-yl]-3-(2-imino-4,4-dimethyl-6-oxo-hexahydropyrimidin-1-yl)indane-5-carboxamide] | 8.96
11 | CC[C@]1(C)CC(=O)N([C@H]2c3cc(C(=O)N[C@@H]4c5ccccc5C[C@@]4(C)O)ccc3OC[C@@H]2COC)C(=N)N1 [Example 202, (3S,4R)-4-[(4R)-4-ethyl-2-imino-4-methyl-6-oxo-hexahydropyrimidin-1-yl]-N-[(1R,2R)-2-hydroxy-2-methyl-indan-1-yl]-3-(methoxymethyl)chromane-6-carboxamide] | 9.10
12 | CCC1(CC)CC(=O)N([C@@H]2C[C@@H](OC)c3ccc(C(=O)N[C@@H]4c5ccccc5OC[C@@]4(C)O)cc32)C(=N)N1 [Example 203, (1R,3R)-3-(4,4-diethyl-2-imino-6-oxo-hexahydropyrimidin-1-yl)-N-[(3S,4R)-3-hydroxy-3-methyl-chroman-4-yl]-1-methoxy-indane-5-carboxamide] | 8.23
13 | CCC1(CC)CC(=O)N(C2c3cc(C(=O)N[C@@H]4c5ccccc5C[C@]4(C)O)ccc3OCC2OC)C(=N)N1 (stereo partly drawn) [Example 213, 4-(4,4-diethyl-2-imino-6-oxo-hexahydropyrimidin-1-yl)-N-[(1R,2S)-2-hydroxy-2-methyl-indan-1-yl]-3-methoxy-chromane-6-carboxamide] | 8.05
14 | CCC1(CC)CC(=O)N([C@H]2CCS(=O)(=O)c3ccc(C(=O)N[C@@H]4c5ccccc5C[C@H]4O)cc32)C(=N)N1 [Example 223, (4S)-4-(4,4-diethyl-2-imino-6-oxo-hexahydropyrimidin-1-yl)-N-[(1R,2R)-2-hydroxyindan-1-yl]-1,1-dioxo-3,4-dihydro-2H-thiochromene-6-carboxamide] | 6.52
15 | CC[C@]1(C)CC(=O)N([C@@H]2CCOc3ccc(C(=O)N[C@@H]4c5cc(F)ccc5OC(C)(C)[C@H]4O)cc32)C(=N)N1 [Example 224, (4R)-4-[(4R)-4-ethyl-2-imino-4-methyl-6-oxo-hexahydropyrimidin-1-yl]-N-[(3S,4R)-6-fluoro-3-hydroxy-2,2-dimethyl-chroman-4-yl]chromane-6-carboxamide] | 9.52
16 | CC[C@@]1(C)CC(=O)N([C@@H]2CCOc3ccc(C(=O)N[C@@H]4c5cc(F)ccc5OC(C)(C)[C@H]4O)cc32)C(=N)N1 [Example 225, (4R)-4-[(4S)-4-ethyl-2-imino-4-methyl-6-oxo-hexahydropyrimidin-1-yl]-N-[(3S,4R)-6-fluoro-3-hydroxy-2,2-dimethyl-chroman-4-yl]chromane-6-carboxamide] | 9.10
17 | CCC1(CC)CC(=O)N([C@H]2c3cc(C(=O)N[C@@H]4c5ccccc5C[C@@]4(C)O)ccc3OC[C@H]2COC)C(=N)N1 [Example 235, (3R,4R)-4-(4,4-diethyl-2-imino-6-oxo-hexahydropyrimidin-1-yl)-N-[(1R,2R)-2-hydroxy-2-methyl-indan-1-yl]-3-(methoxymethyl)chromane-6-carboxamide] | 9.15
18 | CCC1(CC)CC(=O)N([C@@H]2C[C@@H](OC)c3ccc(C(=O)N[C@@H]4c5ccccc5OC(C)(C)[C@H]4O)cc32)C(=N)N1 [Example 236, (1R,3R)-3-(4,4-diethyl-2-imino-6-oxo-hexahydropyrimidin-1-yl)-N-[(3S,4R)-3-hydroxy-2,2-dimethyl-chroman-4-yl]-1-methoxy-indane-5-carboxamide] | 9.05
19 | CCC1(CC)CC(=O)N([C@@H]2C[C@H](OC)c3ccc(C(=O)N[C@@H]4c5ccccc5OC(C)(C)[C@H]4O)cc32)C(=N)N1 [Example 239, (1S,3R)-3-(4,4-diethyl-2-imino-6-oxo-hexahydropyrimidin-1-yl)-N-[(3S,4R)-3-hydroxy-2,2-dimethyl-chroman-4-yl]-1-methoxy-indane-5-carboxamide] | 9.05
20 | CCC1(CC)CC(=O)N([C@H]2c3cc(C(=O)N[C@@H]4c5ccccc5OC(C)(C)[C@H]4O)ccc3OC[C@@H]2C)C(=N)N1 [Example 240, (3R,4R)-4-(4,4-diethyl-2-imino-6-oxo-hexahydropyrimidin-1-yl)-N-[(3S,4R)-3-hydroxy-2,2-dimethyl-chroman-4-yl]-3-methyl-chromane-6-carboxamide] | 9.22
21 | CCC1(CC)CC(=O)N([C@H]2c3cc(C(=O)N[C@@H]4c5ccccc5OC(C)(C)[C@H]4O)ccc3OC[C@H]2C)C(=N)N1 [Example 241, (3S,4R)-4-(4,4-diethyl-2-imino-6-oxo-hexahydropyrimidin-1-yl)-N-[(3S,4R)-3-hydroxy-2,2-dimethyl-chroman-4-yl]-3-methyl-chromane-6-carboxamide] | 9.40

same assay, conditions: parasite LDH growth assay, ring stage parasites, 72 hours incubation at 37° C.; read-out: EC50

Row | SMILES | pEC50
22 | CCC1(CC)CC(=O)N([C@@H]2CCOc3ccc(C(=O)NC4c5ccccc5OC4(C)CO)cc32)C(=N)N1 (stereo partly drawn) [Example 176B, (4R)-4-(4,4-diethyl-2-imino-6-oxo-hexahydropyrimidin-1-yl)-N-[2-(hydroxymethyl)-2-methyl-3H-benzofuran-3-yl]chromane-6-carboxamide] | 8.11
23 | CC[C@]1(C)CC(=O)N([C@@H]2CCOc3ccc(C(=O)NC4c5c(F)cccc5OCC4(C)O)cc32)C(=N)N1 (stereo partly drawn) [Example 193B, (4R)-4-[(4R)-4-ethyl-2-imino-4-methyl-6-oxo-hexahydropyrimidin-1-yl]-N-(5-fluoro-3-hydroxy-3-methyl-chroman-4-yl)chromane-6-carboxamide] | 9.10
24 | CCC1(CC)CC(=O)N([C@@H]2CCOc3ccc(C(=O)NC4c5cc(F)ccc5OCC4(C)O)cc32)C(=N)N1 (stereo partly drawn) [Example 226D, (4R)-4-(4,4-diethyl-2-imino-6-oxo-hexahydropyrimidin-1-yl)-N-(6-fluoro-3-hydroxy-3-methyl-chroman-4-yl)chromane-6-carboxamide] | 9.00
25 | CCC1(CC)CC(=O)N([C@@H]2CCOc3ccc(C(=O)NC4c5ccccc5OC(C)(C)C4(C)O)cc32)C(=N)N1 (stereo partly drawn) [Example 242A, (4R)-4-(4,4-diethyl-2-imino-6-oxo-hexahydropyrimidin-1-yl)-N-(3-hydroxy-2,2,3-trimethyl-chroman-4-yl)chromane-6-carboxamide] | 9.22
